In PubChem BioAssay (NCI) one finds TGI data, which are given here for three compounds.

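Briefly, cells in 96-well plates were exposed to five compound concentrations for 48 h, and endpoints were estimated by linear interpolation. At the TGI there is no net growth.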

Among the test systems are MDA-MB-231 breast; BT-549 breast; DLD-1 colon; LXFL 529 NSCLC; DMS 114 small cell lung; SNB-78 CNS; RXF-631 renal.
Common to all, as to assay: inhibition of tumour cell growth, NCI panel, 48 h

For the compound `COC(=O)[C@@H]1C=C[C@H](NC(C)=O)C1`, the TGI with MDA-MB-231 breast and in the test on BT-549 breast was more than 100 µM in each case.
For `Cn1c(=O)n(CC2CS2)c2ccccc21` (stereo not drawn), the TGI with DLD-1 colon, in the test with LXFL 529 NSCLC and with DMS 114 small cell lung was more than 100 µM in each case.
For `CCN(CC)/[N+]([O-])=N/O`, the TGI in the test on LXFL 529 NSCLC, in the test on SNB-78 CNS and in the test with RXF-631 renal was more than 100 µM each time.
